What follows are compounds tested against T1, b-Raf(V600E) (Homo sapiens, UniProt P15056, V600E) (assay: Raf/Mek Amplified Luminescence Proximity Homogeneous Assay (Alpha Screen), b-Raf(V600E)). Conditions: mutant b-Raf(V600E), read-out: mut-b-RAF (IC50 in uM).
T1 construct: made in house
Type: biochemical
Method in brief: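 IC50 derived by non-linear regression from AlphaScreen luminescence of phospho-MEK (anti-p-MEK antibody). Reaction: ~4 pM b-Raf(V600E), ~10 nM kinase-dead biotinylated Mek, 60 min compound pre-incubation, then 3 h with ATP at room temperature in pH 7.5 Tris/MgCl2/DTT buffer, quenched with EDTA.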

T1 sequence (P15056 whole entry V600E): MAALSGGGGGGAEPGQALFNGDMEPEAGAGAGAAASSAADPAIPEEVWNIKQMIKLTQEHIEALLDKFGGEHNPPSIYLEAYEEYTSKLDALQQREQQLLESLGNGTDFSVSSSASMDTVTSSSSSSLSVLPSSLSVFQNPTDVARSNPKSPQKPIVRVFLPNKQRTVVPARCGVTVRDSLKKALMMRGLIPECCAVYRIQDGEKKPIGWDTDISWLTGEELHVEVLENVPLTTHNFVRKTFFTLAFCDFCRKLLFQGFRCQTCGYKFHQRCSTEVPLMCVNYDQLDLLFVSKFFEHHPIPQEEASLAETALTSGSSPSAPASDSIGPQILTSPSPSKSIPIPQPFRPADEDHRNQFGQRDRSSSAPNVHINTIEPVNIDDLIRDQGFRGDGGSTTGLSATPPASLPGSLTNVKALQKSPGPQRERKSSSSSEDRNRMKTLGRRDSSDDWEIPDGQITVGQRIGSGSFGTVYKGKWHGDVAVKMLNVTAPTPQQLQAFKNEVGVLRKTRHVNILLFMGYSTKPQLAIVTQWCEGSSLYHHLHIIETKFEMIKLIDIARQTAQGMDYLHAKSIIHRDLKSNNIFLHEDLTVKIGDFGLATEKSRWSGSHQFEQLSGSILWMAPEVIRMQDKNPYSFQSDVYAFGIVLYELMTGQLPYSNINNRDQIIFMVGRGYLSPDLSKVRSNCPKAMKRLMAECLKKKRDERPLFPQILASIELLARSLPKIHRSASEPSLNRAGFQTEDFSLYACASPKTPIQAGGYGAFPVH

| IC50 | Compound |
| --- | --- |
| 0.0015 µM | COc1cc(-c2[nH]c(-c3ccc(F)c(C=O)c3)nc2-c2ccncc2)cnc1N [Compound 148, 5-(5-(6-amino-5-methoxypyridin-3-yl)-4-(pyridin-4-yl)-1H-imidazol-2-yl)-2-fluorobenzaldehyde] |
| 0.0051 µM | COc1cc(-c2nc(-c3ccc(F)cc3)[nH]c2-c2ccnc(NC(C)C)n2)cnc1N [Compound 158, 4-(4-(6-amino-5-methoxypyridin-3-yl)-2-(4-fluorophenyl)-1H-imidazol-5-yl)-N-isopropylpyrimidin-2-amine] |
| 0.0007 µM | COc1ccc(-c2nc(-c3ccncc3)c(-c3cnc(N)c(OC)c3)[nH]2)cc1OC [Compound 107, 5-(2-(3,4-dimethoxyphenyl)-4-(pyridin-4-yl)-1H-imidazol-5-yl)-3-methoxypyridin-2-amine] |
| 0.0006 µM | COc1cc(-c2nc(-c3ccccc3)[nH]c2-c2ccnc(NC[C@H](C)O)n2)cnc1N [Compound 74, (S)-1-(4-(4-(6-amino-5-methoxypyridin-3-yl)-2-phenyl-1H-imidazol-5-yl)pyrimidin-2-ylamino)propan-2-ol] |
| 0.0024 µM | COCC(=O)N[C@@H](C)CNc1nccc(-c2[nH]c(-c3ccc(F)cc3)nc2-c2nc(OC)c(N)nc2C)n1 [Compound 252, (S)-N-(1-(4-(4-(5-amino-6-methoxy-3-methylpyrazin-2-yl)-2-(4-fluorophenyl)-1H-imidazol-5-yl)pyrimidin-2-ylamino)propan-2-yl)-2-methoxyacetamide] |
| 0.0035 µM | COc1cc(-c2[nH]c(-c3ccc(C(N)=O)cc3)nc2-c2ccncc2)cnc1N [Compound 126, 4-(5-(6-amino-5-methoxypyridin-3-yl)-4-(pyridin-4-yl)-1H-imidazol-2-yl)benzamide] |
| 0.0013 µM | COc1cc(-c2nc(-c3ccccc3)[nH]c2-c2ccnc(NCCO)n2)cnc1N [Example 3, 2-(4-(4-(6-amino-5-methoxypyridin-3-yl)-2-phenyl-1H-imidazol-5-yl)pyrimidin-2-ylamino)ethanol] |
| 0.0016 µM | COc1cc(-c2[nH]c(-c3cccc4ncccc34)nc2-c2ccncc2)cnc1N [Compound 169, 3-methoxy-5-(4-(pyridin-4-yl)-2-(quinolin-5-yl)-1H-imidazol-5-yl)pyridin-2-amine] |
| 0.011 µM | COc1cc(Nc2nccc(-c3[nH]c(C)nc3-c3cnc(N)c(OC)n3)n2)ccn1 [Compound 245, 4-(4-(5-amino-6-methoxypyrazin-2-yl)-2-methyl-1H-imidazol-5-yl)-N-(2-methoxypyridin-4-yl)pyrimidin-2-amine] |
| 0.0014 µM | COc1cc(-c2[nH]c(C(C)(C)C)nc2-c2ccnc(N[C@@H](C)CNC(=O)[C@@H](C)OC)n2)cnc1N [Compound 208, (R)-N-((S)-2-(4-(5-(6-amino-5-methoxypyridin-3-yl)-2-tert-butyl-1H-imidazol-4-yl)pyrimidin-2-ylamino)propyl)-2-methoxypropanamide] |
| 0.0005 µM | COc1cc(-c2nc(-c3ccc(F)cc3)oc2-c2ccncc2)cnc1N [Example 13, 5-(2-(4-fluorophenyl)-5-(pyridin-4-yl)oxazol-4-yl)-3-methoxypyridin-2-amine] |
| 0.0011 µM | CCOC(=O)N[C@@H](C)CNc1nccc(-c2[nH]c(C(C)(C)C)nc2-c2nc(OC)c(N)nc2C)n1 [Compound 256, (S)-ethyl 1-(4-(4-(5-amino-6-methoxy-3-methylpyrazin-2-yl)-2-tert-butyl-1H-imidazol-5-yl)pyrimidin-2-ylamino)propan-2-ylcarbamate] |
| 0.775 µM | Fc1ccc(-c2nc(-c3ccncc3)c(-c3ccnc4[nH]ccc34)[nH]2)cc1 [Compound 150, 4-(2-(4-fluorophenyl)-4-(pyridin-4-yl)-1H-imidazol-5-yl)-1H-pyrrolo[2,3-b]pyridine] |
| 0.0019 µM | COc1cc(-c2sc(-c3ccccc3)nc2-c2ccncc2)cnc1N [Example 15, 3-methoxy-5-(2-phenyl-4-(pyridine-4-yl)thiazol-5-yl)pyridine-2-amine] |
| 0.0003 µM | COc1cc(-c2ccc(S(=O)(=O)N3CCC[C@@H](Nc4nccc(-c5nc(-c6ccccc6)[nH]c5-c5cnc(N)c(OC)c5)n4)C3)cc2)cnc1N [Compound 64, (R)-4-(5-(6-amino-5-methoxypyridin-3-yl)-2-phenyl-1H-imidazol-4-yl)-N-(1-(4-(6-amino-5-methoxypyridin-3-yl)phenylsulfonyl)piperidin-3-yl)pyrimidin-2-amine] |
| 0.0002 µM | COCC(=O)N[C@@H](C)CNc1nccc(-c2[nH]c(-c3ccc(C(F)(F)F)cc3F)nc2-c2cnc(N)c(OC)c2)n1 [Compound 216, (S)-N-(1-(4-(6-(6-amino-5-methoxypyridin-3-yl)-2-(2-fluoro-4-(trifluoromethyl)phenyl)-1H-imidazol-5-yl)pyrimidin-2-ylamino)propan-2-yl)-2-methoxyacetamide] |
| 0.0002 µM | COCC(=O)N[C@@H](C)CNc1nccc(-c2[nH]c(-c3ccc(F)cc3)nc2-c2cnc(N)c(OC)n2)n1 [Example 5, (S)—N-(1-(4-(4-(5-amino-6-methoxylpyrazin-2-yl)-2-(4-fluorophenyl)-1H-imidazol-5-yl)pyrimidin-2-ylamino)propan-2-yl)-2-methoxyacetamide] |

| IC50 | Compound |
| --- | --- |
| 0.0007 µM | COc1ccc(-c2nc(-c3ccncc3)c(-c3cnc(N)c(OC)c3)[nH]2)cc1F [Compound 108, 5-(2-(3-fluoro-4-methoxyphenyl)-4-(pyridin-4-yl)-1H-imidazo-5-yl)-3-methoxypyridin-2-amine] |
| 0.0015 µM | COc1cc(-c2[nH]c(C3CC3)nc2-c2ccncc2)cnc1N [Compound 76, 5-(2-cyclopropyl-4-(pyridin-4-yl)-1H-imidazol-5-yl)-3-methoxypyridin-2-amine] |
| 0.0287 µM | Nc1ncc(-c2[nH]c(-c3ccccc3)nc2-c2ccncc2)cc1Cl [Compound 46, 3-chloro-5-(2-phenyl-4-(pyridin-4-yl)-1H-imidazol-5-yl)pyridin-2-amine] |
| 0.0022 µM | COCCNc1nccc(-c2nc(-c3ccc(F)cc3)[nH]c2-c2cnc(N)c(OC)c2)n1 [Compound 161, 4-(5-(6-amino-5-methoxypyridin-3-yl)-2-(4-fluorophenyl)-1H-imidazol-4-yl)-N-(2-methoxyethyl)pyrimidin-2-amine] |
| 0.025 µM | COCC(=O)NCCNc1nccc(-c2nc(-c3ccc(F)cc3)[nH]c2-c2cc(C)c3ncnn3c2)n1 [Compound 202, N-(2-(4-(2-(4-fluorophenyl)-5-(8-methyl-[1,2,4]triazolo[1,5-a]pyridin-6-yl)-1H-imidazol-4-yl)pyrimidin-2-ylamino)ethyl)-2-methoxyacetamide] |
| 0.001 µM | COc1cc(-c2[nH]c(-c3cccc(S(N)(=O)=O)c3)nc2-c2ccncc2)cnc1N [Compound 132, 3-(5-(6-amino-5-methoxypyridin-3-yl)-4-(pyridin-4-yl)-1H-imidazol-2-yl)benzenesulfonamide] |
| 0.417 µM | Nc1cc(-c2[nH]c(-c3ccccc3)nc2-c2ccncc2)ccn1 [Compound 27, 4-(2-phenyl-4-(pyridin-4-yl)-1H-imidazol-5-yl)pyridin-2-amine] |
| 0.0012 µM | COc1cc(-c2[nH]c(-c3ccc(F)c(F)c3)nc2-c2ccncc2)cnc1N [Compound 109, 5-(2-(3,4-difluorophenyl)-4-(pyridin-4-yl)-1H-imidazol-5-yl)-3-methoxypyridin-2-amine] |
| 0.0003 µM | CNC(=O)N[C@@H](C)CNc1nccc(-c2[nH]c(C(C)(C)C)nc2-c2cnc(N)c(OC)c2)n1 [Compound 219, (S)-1-(1-(4-(4-(6-amino-5-methoxypyridin-3-yl)-2-tert-butyl-1H-imidazol-5-yl)pyrimidin-2-ylamino)propan-2-yl)-3-methylurea] |
| 0.0023 µM | COc1cc(-c2[nH]c(-c3ccc(Cl)cc3F)nc2-c2ccncc2)cnc1N [Compound 146, 5-(2-(4-chloro-2-fluorophenyl)-4-(pyridin-4-yl)-1H-imidazol-5-yl)-3-methoxypyridin-2-amine] |
| 0.0028 µM | COc1cc(-c2[nH]c(-c3ccccc3C(F)(F)F)nc2-c2ccncc2)cnc1N [Compound 136, 3-methoxy-5-(4-(pyridin-4-yl)-2-(2-(trifluoromethyl)phenyl)-1H-imidazol-5-yl)pyridin-2-amine] |
| 0.0012 µM | COc1cc(-c2[nH]c(-c3ccccc3C)nc2-c2ccncc2)cnc1N [Compound 138, 3-methoxy-5-(4-(pyridin-4-yl)-2-o-tolyl-1H-imidazol-5-yl)pyridin-2-amine] |
| 0.0001 µM | COCC(=O)N[C@@H](C)CNc1nccc(-c2[nH]c(-c3ccc(C(F)(F)F)cc3F)nc2-c2cnc(N)c(OC)n2)n1 [Compound 247, (S)-N-(1-(4-(4-(5-amino-6-methoxypyrazin-2-yl)-2-(2-fluoro-4-(trifluoromethyl)phenyl)-1H-imidazol-5-yl)pyrimidin-2-ylamino)propan-2-yl)-2-methoxyacetamide] |
| 0.0001 µM | COc1nc(-c2nc(C(C)(C)C)[nH]c2-c2ccnc(NC[C@H](C)NC(=O)OCC(C)C)n2)cnc1N [Compound 239, (S)-isobutyl 1-(4-(4-(5-amino-6-methoxypyrazin-2-yl)-2-tert-butyl-1H-imidazol-5-yl)pyrimidin-2-ylamino)propan-2-ylcarbamate] |
| 0.0001 µM | CNc1nccc(-c2[nH]c(C(C)(C)C)nc2-c2cnc(N)c(OC)c2)n1 [Compound 210, 4-(4-(6-amino-5-methoxypyridin-3-yl)-2-tert-butyl-1H-imidazol-5-yl)-N-methylpyrimidin-2-amine] |
| 0.0003 µM | COc1cc(-c2nc(C(C)(C)C)[nH]c2-c2ccnc(Nc3ccc4c(c3)OC(F)(F)O4)n2)cnc1N [Compound 189, 4-(4-(6-amino-5-methoxypyridin-3-yl)-2-tert-butyl-1H-imidazol-5-yl)-N-(2,2-difluorobenzo[d][1,3]dioxol-5-yl)pyrimidin-2-amine] |
| 0.0658 µM | Cc1cc(-c2[nH]c(-c3ccc(F)cc3)nc2-c2ccncc2)cnc1N [Compound 152, 5-(2-(4-fluorophenyl)-4-(pyridin-4-yl)-1H-imidazol-5-yl)-3-methylpyridin-2-amine] |
